Test results reported in patent publication US12172992B2, “Pyrimidines for degrading Bruton's tyrosine kinase” (AbbVie Inc., priority 2022, dated 2024).

System: TCL1-driven CLL bearing BTK^C481S mutation
Assay: TCL1-driven CLL bearing BTK C481S mutation in C57BL/6 mice, circulating leukemia burden
Format: in vivo, mouse
Excerpt: EIA-TCL1 CLL transgenic mice (Crogen Pharmaceuticals LLC) were crossed with BTK^C481S knock-in mice (AbbVie) to generate Eμ-TCL1 transgenic mice carrying the BTK^C481S mutation. The leukemic splenocytes from these BTK^C481S Eμ-TCL1 transgenic mice (Passage 1) were transplanted intravenously into C57BL/6 mice, leading to CLL development in the peripheral blood and spleen. When circulating CLL burden (CD5+CD19+ cells as described below) in the recipient mice reached over 90%, their splenocytes (Passage 2) containing high CLL burden were cryopreserved and used for CLL efficacy studies. […]
To determine the absolute/total leukocyte numbers, complete blood counts were determined for each mouse using the Genesis™ veterinary hematology analyzer (Oxford Science Inc.).
Cells isolated from murine peripheral blood mononuclear cells (PMBCs) were collected to determine antigen expression. […] Cells were gated on CD45+, and thereafter the percentage of cells that were CD5+CD19+ from that subset was calculated. […]
Whole blood was collected weekly post tumor implantation via submandibular cheek bleeding. Circulating leukemic burden was calculated by multiplying absolute/total leukocyte count with the percentage of the leukocytes have the immunophenotype CD19^+CD5^+. […]

`Cc1cc(-c2cc(Nc3ccc(N4CCN(CCc5ccc(N6CCC(=O)NC6=O)cc5)C[C@@H]4C)cn3)ncn2)ccc1[C@@H](C)NC(=O)c1nc(C(C)(C)C)no1` [Example 1, 3-tert-butyl-N-[(1R)-1-{4-[6-({5-[(2S)-4-{2-[4-(2,4-dioxo-1,3-diazinan-1-yl)phenyl]ethyl}-2-methylpiperazin-1-yl]pyridin-2-yl}amino)pyrimidin-4-yl]-2-methylphenyl}ethyl]-1,2,4-oxadiazole-5-carboxamide] was tested, and the “CLL burden control (no increase from the initial tumor burden)” value (QD for 19 days, at Dosage 3 and Dosage 4) was “Complete CLL burden control” and the “circulating leukemia burden (CD19+CD5+ CLL cells per μL)” value (once daily (QD) for 19 days, Dosage 1-4, FIG. 1) was “controlled circulating leukemia burden of the TCL1-driven CLL bearing BTK^C481S mutation in C57BL/6 mice in a dose-dependent manner”.
